What was measured:
Assay in all cases: relative viability (nuclei count vs DMSO), 5 days (fraction); higher = more cells survive
[1] = test system: ABC-1
Outline: (§1)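 Relative viability was taken as the ratio of nuclei in treated wells to nuclei in vehicle wells. Lung cancer cell lines in 1536-well plates received compounds by pin tool one day after seeding, either one drug alone or a fixed anchor-drug dose plus five library-drug doses (not always all listed) in √10 steps. Nuclei were counted on 4× images after 5 days of treatment, and values are medians of duplicate plates.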

[2] = test system: CAL-12T
Outline: as §1

[3] = test system: COR-L 105
Outline: as §1

[4] = test system: ChaGo-K-1
Outline: as §1

[5] = test system: EMC-BAC-2
Outline: as §1

[6] = test system: EPLC-272H
Outline: as §1

[7] = test system: HCC-15
Outline: as §1

[8] = test system: HCC-78
Outline: as §1

[9] = test system: HOP-62
Outline: as §1

[10] = test system: LXF-289
Outline: as §1

[11] = test system: NCI-H1666
Outline: as §1

[12] = test system: NCI-H1755
Outline: as §1

[13] = test system: NCI-H1915
Outline: as §1

[14] = test system: NCI-H1975
Outline: as §1

[15] = test system: NCI-H2023
Outline: as §1

[16] = test system: NCI-H2085
Outline: as §1

[17] = test system: NCI-H2126
Outline: as §1

[18] = test system: NCI-H3122
Outline: as §1

[19] = test system: NCI-H322M
Outline: as §1

[20] = test system: NCI-H358
Outline: as §1

[21] = test system: NCI-H441
Outline: as §1

[22] = test system: UMC-11
Outline: as §1

Structure (SMILES): CCN(CC)CCCCNc1ncc2cc(-c3cc(OC)cc(OC)c3)c(NC(=O)NC(C)(C)C)nc2n1 + O=C(CCCCCCC(=O)Nc1ccccc1)NO [Vorinostat] (partner 1 µM)
- relative viability ([1]; first compound 0.03162 µM): 0.99
- relative viability ([1]; first compound 0.1 µM): 1.35
- relative viability ([1]; first compound 0.3162 µM): 1.01
- relative viability ([1]; first compound 1 µM): 1.09
- relative viability ([2]; first compound 0.01 µM): 0.784
- relative viability ([2]; first compound 0.03162 µM): 0.702
- relative viability ([2]; first compound 0.1 µM): 0.766
- relative viability ([2]; first compound 0.3162 µM): 0.778
- relative viability ([2]; first compound 1 µM): 0.845
- relative viability ([3]; first compound 0.01 µM): 0.771
- relative viability ([3]; first compound 0.03162 µM): 0.774
- relative viability ([3]; first compound 0.1 µM): 0.981
- relative viability ([3]; first compound 0.3162 µM): 0.796
- relative viability ([3]; first compound 1 µM): 0.805
- relative viability ([4]; first compound 0.01 µM): 0.776
- relative viability ([4]; first compound 0.03162 µM): 0.822
- relative viability ([4]; first compound 0.1 µM): 0.824
- relative viability ([4]; first compound 0.3162 µM): 0.827
- relative viability ([4]; first compound 1 µM): 0.693
- relative viability ([5]; first compound 0.03162 µM): 0.403
- relative viability ([5]; first compound 0.1 µM): 0.428
- relative viability ([5]; first compound 0.3162 µM): 0.758
- relative viability ([5]; first compound 1 µM): 0.444
- relative viability ([6]; first compound 0.01 µM): 0.4
- relative viability ([6]; first compound 0.03162 µM): 0.537
- relative viability ([6]; first compound 0.1 µM): 0.277
- relative viability ([6]; first compound 0.3162 µM): 0.493
- relative viability ([6]; first compound 1 µM): 0.335
- relative viability ([7]; first compound 0.01 µM): 0.857
- relative viability ([7]; first compound 0.03162 µM): 0.849
- relative viability ([7]; first compound 0.1 µM): 0.867
- relative viability ([7]; first compound 0.3162 µM): 0.929
- relative viability ([7]; first compound 1 µM): 0.836
- relative viability ([8]; first compound 0.01 µM): 0.479
- relative viability ([8]; first compound 0.03162 µM): 0.487
- relative viability ([8]; first compound 0.1 µM): 0.478
- relative viability ([8]; first compound 0.3162 µM): 0.456
- relative viability ([8]; first compound 1 µM): 0.497
- relative viability ([9]; first compound 0.01 µM): 0.715
- relative viability ([9]; first compound 0.03162 µM): 0.595
- relative viability ([9]; first compound 0.1 µM): 0.616
- relative viability ([9]; first compound 0.3162 µM): 0.65
- relative viability ([9]; first compound 1 µM): 0.663
- relative viability ([10]; first compound 0.01 µM): 0.768
- relative viability ([10]; first compound 0.03162 µM): 0.905
- relative viability ([10]; first compound 0.1 µM): 0.829
- relative viability ([10]; first compound 0.3162 µM): 0.85
- relative viability ([10]; first compound 1 µM): 0.661
- relative viability ([11]; first compound 0.01 µM): 1.13
- relative viability ([11]; first compound 0.03162 µM): 1.01
- relative viability ([11]; first compound 0.1 µM): 1.04
- relative viability ([11]; first compound 0.3162 µM): 1.1
- relative viability ([11]; first compound 1 µM): 1.05
- relative viability ([12]; first compound 0.01 µM): 0.71
- relative viability ([12]; first compound 0.03162 µM): 0.919
- relative viability ([12]; first compound 0.1 µM): 0.848
- relative viability ([12]; first compound 0.3162 µM): 0.965
- relative viability ([12]; first compound 1 µM): 0.746
- relative viability ([13]; first compound 0.01 µM): 0.452
- relative viability ([13]; first compound 0.03162 µM): 0.531
- relative viability ([13]; first compound 0.1 µM): 0.537
- relative viability ([13]; first compound 0.3162 µM): 0.456
- relative viability ([13]; first compound 1 µM): 0.513
- relative viability ([14]; first compound 0.01 µM): 0.758
- relative viability ([14]; first compound 0.03162 µM): 0.756
- relative viability ([14]; first compound 0.1 µM): 0.853
- relative viability ([14]; first compound 0.3162 µM): 0.78
- relative viability ([14]; first compound 1 µM): 0.548
- relative viability ([15]; first compound 0.01 µM): 0.534
- relative viability ([15]; first compound 0.03162 µM): 0.756
- relative viability ([15]; first compound 0.1 µM): 0.686
- relative viability ([15]; first compound 0.3162 µM): 0.6
- relative viability ([15]; first compound 1 µM): 0.567
- relative viability ([16]; first compound 0.01 µM): 0.782
- relative viability ([16]; first compound 0.03162 µM): 0.8
- relative viability ([16]; first compound 0.1 µM): 0.935
- relative viability ([16]; first compound 0.3162 µM): 0.858
- relative viability ([16]; first compound 1 µM): 0.793
- relative viability ([17]; first compound 0.01 µM): 0.771
- relative viability ([17]; first compound 0.03162 µM): 0.834
- relative viability ([17]; first compound 0.1 µM): 0.807
- relative viability ([17]; first compound 0.3162 µM): 0.834
- relative viability ([17]; first compound 1 µM): 0.822
- relative viability ([18]; first compound 0.01 µM): 0.983
- relative viability ([18]; first compound 0.03162 µM): 1.06
- relative viability ([18]; first compound 0.1 µM): 1.09
- relative viability ([18]; first compound 0.3162 µM): 0.996
- relative viability ([18]; first compound 1 µM): 1.14
- relative viability ([19]; first compound 0.01 µM): 0.787
- relative viability ([19]; first compound 0.03162 µM): 0.911
- relative viability ([19]; first compound 0.1 µM): 0.934
- relative viability ([19]; first compound 0.3162 µM): 0.966
- relative viability ([19]; first compound 1 µM): 0.872
- relative viability ([20]; first compound 0.01 µM): 0.684
- relative viability ([20]; first compound 0.03162 µM): 0.879
- relative viability ([20]; first compound 0.1 µM): 0.813
- relative viability ([20]; first compound 0.3162 µM): 0.806
- relative viability ([20]; first compound 1 µM): 0.583
- relative viability ([21]; first compound 0.01 µM): 0.863
- relative viability ([21]; first compound 0.03162 µM): 0.829
- relative viability ([21]; first compound 0.1 µM): 0.811
- relative viability ([21]; first compound 0.3162 µM): 0.776
- relative viability ([21]; first compound 1 µM): 0.826
- relative viability ([22]; first compound 0.01 µM): 0.4
- relative viability ([22]; first compound 0.03162 µM): 0.36
- relative viability ([22]; first compound 0.1 µM): 0.361
- relative viability ([22]; first compound 0.3162 µM): 0.394
- relative viability ([22]; first compound 1 µM): 0.311

Reference: the supplement of paper PMC10307832
